Results as given in patent publication US20020166132A1, “System for regulating in vivo the expression of a transgene by conditional inhibition” (priority 2000, published 2002).

Experiments:
[1] = system: SeAP reporter gene (plasmid pRDA02); test: SeAP expression in C2C12 cells, hPPARγ2 inducible system; assay type: cell-based, murine; settings: ratios of columns 3 and 4; 5 and 6; 7 and 8, FIG. 24; BRL49653 at 10^-7 M final
Protocol: FIG. 24: Measurement of the expression of SeAP 5 days after transfection in C2C12 cells with the following plasmids, with and without the chemical inducer BRL49653 at 10^-7 M final:
The cells used were NIHT3T3 murine fibroblasts (ATCC: CRL-1658). These cells were seeded 24 h before transfection, in 6- or 24-well plates, at a density of 5×10^4 cells/well in 1 ml of medium, or of 2.5×10^5 cells/well in 2 ml. The culture medium used was DMEM™ medium (Life Technologies Inc.) supplemented with 10% of calf serum. The cell cultures were incubated in an incubator at 37° C. in a humid atmosphere and under a partial CO2 pressure of 5%. The transfections were carried out approximately 24 h after seeding, when 50 to 80% confluence was obtained. C2C12 cells were murine myoblast cells (ATCC: CRL1772) and were cultured on a DMEM™ medium (Life Technologies Inc.) supplemented with 10% of fetal calf serum to which L-glutamine, 2 mM final, and antibiotics, 50 units final of penicillin and 50 μg/ml of streptomycin, were added.

SeAP reporter gene = test: Circulating SeAP after intramuscular injection and electrotransfer of plasmids into tibialis cranialis muscle of SCID mice; assay type: in vivo
Protocol: The 6-week-old SCID mice were first anesthetized with a Ketamine/Xylazine mixture (250 μl/mouse). The various plasmids in solution in 150 mM NaCl were then injected intramuscularly into the tibialis cranialis muscle of the mice. […] The amount of circulating SeAP was regularly monitored by taking blood samples and assaying the phosphatase activity using the Phospha-Light kit (Tropix).

## CN(CCOc1ccc(CC2SC(=O)NC2=O)cc1)c1ccccn1 (stereo not drawn) [BRL fibrate, rosiglitazone]
[1]
  inducibility of the expression of SeAP in the presence of the antisense transcript: a certain inducibility

## NC[C@@H]1O[C@H](O[C@H]2[C@@H](O)[C@H](O[C@@H]3[C@@H](O)[C@H](N)C[C@H](N)[C@H]3O[C@H]3O[C@H](CN)[C@@H](O)[C@H](O)[C@H]3N)O[C@@H]2CO)[C@H](N)[C@@H](O)[C@@H]1O [neomycin B]
SeAP reporter gene; pXL3010+pSeAPaptamerAS, IP injection approximately 500 μg/mouse, Example 13
  expression of SeAP with aptamer ligand: can be restored

## CN1CCN(c2ccc3[nH]c(-c4ccc5[nH]c(-c6ccc(O)cc6)nc5c4)nc3c2)CC1
SeAP reporter gene; pXL3010+pSeAPaptazyme, 400 mg/l via the drinking water, Example 14
  SeAP activity with aptamer ligand: restored to a significant level
